test: Inhibition of recombinant human neutral sphingomyelinase 2 using […] as substrate in presence of alkaline phosphatase, choline oxidase and horseradish peroxidase by fluorescence-based coupled assay

Row | IC50 | SMILES
1 | 0.06 µM | CN(C)c1cnn2ccc(N3CCOCC3)nc12
2 | 0.03 µM | COc1ccc(CNc2ccn3ncc(N(C)C)c3n2)cc1OC

The remaining lines, values behind:

Row | SMILES | IC50
3 | CN(C)c1cnn2ccc(NCc3ccc(C(F)(F)F)cc3)nc12 | 0.04 µM
4 | CC1CCCN1c1ccn2ncc(N(C)C)c2n1 (stereo unspecified) | 0.07 µM
5 | CN(C)c1cnn2ccc(NCc3ccccc3)nc12 | 0.08 µM
6 | CN(C)c1ccc(CNc2ccn3ncc(N(C)C)c3n2)cc1 | 0.1 µM
